Experimental data taken from article PMC7529893, “Structural basis for substrate recognition and chemical inhibition of oncogenic MAGE ubiquitin ligases” (Nature Communications, 2020).

biological target: T1, MAGE-A11:PCF11 interaction (GST-MAGE-A11 and FAM-PCF11_4) (Homo sapiens, UniProt P43364); test: TR-FRET primary / single point screen at 15 µM; type: binding; conditions: single point TR-FRET screening of 797 quinoline compounds against MAGE-A11:PCF11
T1 construct: GST-MAGE-A11 MHD (human MAGE-A11 MHD amino acid 218-429); made in house; host or cells: E. coli BL21(DE3)
T1 sequence (P43364 218-429): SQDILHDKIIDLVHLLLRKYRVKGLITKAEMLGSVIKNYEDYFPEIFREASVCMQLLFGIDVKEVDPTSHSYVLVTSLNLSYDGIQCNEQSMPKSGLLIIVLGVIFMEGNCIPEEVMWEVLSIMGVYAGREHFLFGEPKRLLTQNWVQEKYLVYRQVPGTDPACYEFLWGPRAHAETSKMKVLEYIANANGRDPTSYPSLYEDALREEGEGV
Description: The TR-FRET assay buffer with a formula of 50 mM Tris pH 7.5, 20 mM MgCl2, 0.1 mg/ml BSA and 1 mM DTT was freshly prepared before each experiment. All TR-FRET assays were performed in black 384-well plates with 20 µl/well assay volume in the TR-FRET assay buffer at room temperature (~25 °C). All peptides or compounds were solubilized in DMSO. To test the competitive activity of peptides or compounds against the interaction between GST-MAGE-A11 MHD and FAM-PCF11_4 peptide, 10 µl/well peptide or compound at specified concentration was dispensed into a black 384-well low volume plate, followed by 5 µl/well FAM-PCF11_4 (800 nM), 5 µl/well Tb-anti-GST (20 nM), and GST-MAGE-A11 MHD (20 nM). The assay components in each well was then mixed by shaking the plate on an IKA MTS 2/4 digital microtiter plate shaker (IKA Works; Wilmington, NC, USA) for 1 min. The plate was further centrifuged in an Eppendorf 5810 centrifuge with an A-4-62 swing-bucket rotor (Eppendorf AG, Hamburg, Germany) at 201 g for 30 s. The plate was then incubated for 90 min with a lid to avoid light exposure to the assay components. After incubation, the fluorescent emission signals at 520 nm and 490 nm channels of individual wells were measured with a PHERAstar FS plate reader (BMG Labtech; Durham, NC, USA) by using a 340 nm excitation filter, 100 µs delay time, and 200 µs integration time. The TR-FRET fluorescence emission ratio (TR-FRET signal) for each well was presented as 10,000 × 520 nm/490 nm, which was used directly for curve fitting, or further converted to %Inhibition based on the respective positive and negative controls. The graphic software GraphPad Prism 4.81 (GraphPad Software; La Jolla, CA, USA) was used to generate curves and derive IC50 values of tested peptides or compounds, if applicable. TR-FRET screen for identifying MAGE-A11 small molecule inhibitors was performed as follows. The primary one-concentration screening and subsequent 10 or 20-concentration dose-response tests were accomplished with an automated High Throughput Screening system (HighRes Biosolutions, Beverly, MA)[30]. In the primary screening, 15 µl/well FAM-PCF11_4 (267 nM) was first dispensed with a Multidrop Combi Reagent Dispenser (Thermo Fisher Scientific, Waltham, MA) to black 384-well low-volume assay plates. The plates were spun down with a Velocity11 VSpin microplate centrifuge (Agilent Technologies, Santa Clara, CA). In total, 30 nl/well of 10 mM compound/DMSO solutions, or DMSO alone, were transferred from compound plates (the St. Jude FDA drug and bioactive library, Drug-like library and Lead-like library) or a control plate to the assay plates with a Pin Tool (V&P Scientific, San Diego, CA). The compounds were arrayed in columns 3–12 and columns 15–24 of compound plates. The controls were arrayed in columns 1, 2, 13, and 14 of a compound plate. In all, 5 µl/well Tb-anti-GST (20 nM) and GST-MAGE-A11 (20 nM) or 5 µl/well Tb-anti-GST (20 nM) alone was then dispensed to selected wells with a Multidrop Combi Reagent Dispenser. The final assay volume was 20 µl/well. […] The final tested compound concentration was 15 µM. The final FAM-PCF11_4 concentration was 200 nM and the final Tb-anti-GST concentration was 5 nM. The final GST-MAGE-A11 concentration was 5 nM except for those selected positive control wells in which GST-MAGE-A11 was not presented. The plates were then shaken with a big bear shaker (Big Bear Automation, Santa Clara, California) and spun down with the Velocity11 VSpin microplate centrifuge for 20 s. The plates were then incubated at room temperature in a Liconic incubator (Liconic US, Woburn, MA) for 90 min. The TR-FRET signals for individual wells were measured with a PHERAstar FS plate reader. The %Inhibition of each tested inhibitor was calculated by using Eq. 1. Those inhibitors with %Inhibition >30% in the primary screening were selected for further dose-response test, along with additional newly synthesized compounds. […]

SMILES | percent inhibition (TR-FRET)
Clc1ccc2c(NCCCCN(Cc3ccccc3)Cc3ccoc3)ccnc2c1 [SJ000312685] | 14.8973
CCCN(CCCNc1c2ccc(Cl)cc2nc2ccc(OC)cc12)Cc1ccc[nH]1 [SJ000520923] | -271.048
CCc1ccc2ncc(S(=O)(=O)c3ccc(C)cc3)c(N3CCN(CC)CC3)c2c1 [SJ000083962] | 2.377
CCCN(CCCNc1c2ccc(Cl)cc2nc2ccc(OC)cc12)CCOCc1ccccc1 [SJ000522981] | -212.396
COc1ccc2ncc(S(=O)(=O)c3ccc(C)cc3)c(N3CCN(c4ccccc4F)CC3)c2c1 [SJ000117076] | 6.02
COc1ccc2nc3cc(Cl)ccc3c(NCCCNCc3cccn3C)c2c1 [SJ000520985] | -402.468
COc1ccc2nc3cc(Cl)ccc3c(NCCCNCc3cccnc3)c2c1 [SJ000520986] | -408.98
Clc1ccc2c(NC3CCN(Cc4cccc5ccccc45)CC3)ccnc2c1 [SJ000523099] | -6.179
Clc1ccc2c(NCCCCN(Cc3ccccc3)Cc3cccnc3Br)ccnc2c1 [SJ000520453] | 2.377
Cc1ccc(S(=O)(=O)c2cnc3ccccc3c2N2CCN(c3ccc(F)cc3)CC2)cc1C [SJ000117062] | -54.8642
COC(=O)CN1CCN(c2cc(C)nc3ccccc23)C(C)C1=O (centres unmarked) [SJ000516812] | 3.503
CCc1ccc(S(=O)(=O)c2cnc3ccccc3c2N2CCN(C)CC2)cc1 [SJ000278939] | 11.585
Clc1ccc2c(NCCCCN(Cc3ccccc3)CC3CC3)ccnc2c1 [SJ000357485] | 18.3422
Cc1ccc(CN(CCCCNc2ccnc3cc(Cl)ccc23)Cc2ccccc2)s1 [SJ000312687] | 20.7072

The next lines start with the values.

percent inhibition (TR-FRET) | SMILES
8.596 | COc1ccccc1CN1CCC(Nc2ccnc3cc(Cl)ccc23)CC1 [SJ000523097]
-3.251 | Cc1cc(N2CCN(CC(O)COCC(C)C)CC2)c2ccccc2n1 (centres unmarked) [SJ000227654]
-241.81 | COc1ccc2ncc(S(=O)(=O)c3ccccc3)c(N3CCN(c4cccc(C)c4C)CC3)c2c1 [SJ000117082]
30.2004 | Fc1ccc(CN(CCCCNc2ccnc3cc(Cl)ccc23)Cc2ccccc2)cc1 [SJ000522725]
-165.325 | COc1ccc2nc3cc(Cl)ccc3c(NCCCNCc3ccco3)c2c1 [SJ000523032]
20.7772 | Fc1ccccc1CN(CCCCNc1ccnc2cc(Cl)ccc12)Cc1ccccc1 [SJ000361198]
-13.3902 | CCOc1ccc2ncc(S(=O)(=O)c3ccc(C)c(C)c3)c(N3CCN(CC)CC3)c2c1 [SJ000247355]
-16.7513 | O=S(=O)(c1ccc(Br)cc1)N1CCN(c2ccnc3cc(Cl)ccc23)CC1 [SJ000201754]
-514.546 | COc1ccc2nc3cc(Cl)ccc3c(NCCCNCCC(C)SC)c2c1 (centres unmarked) [SJ000361098]
-32.8549 | COc1ccc(N2CCN(c3c(S(=O)(=O)c4ccccc4)cnc4ccc(F)cc34)CC2)cc1 [SJ000083982]
3.973 | Clc1ccc2c(NC3CCN(CC4CC4)CC3)ccnc2c1 [SJ000357481]
-327.201 | COc1ccc2nc3cc(Cl)ccc3c(NCCCNCc3cc(F)ccc3F)c2c1 [SJ000361091]
6.8942 | CCc1nc2ccccc2c(NC(=O)CN2CCN(c3ccccc3)CC2)c1C [SJ000111681]

same assay, conditions: single point TR-FRET screening of quinoline compounds against MAGE-A11:PCF11; 15 µM

SMILES | percent inhibition (TR-FRET)
Cn1cc(CNCCCNc2ccnc3cc(C(F)(F)F)ccc23)c2ccccc21 [SJ000521043] | 29.109
CCCCCNCCCNc1ccnc2cc(Cl)ccc12 [SJ000523057] | 25.8183
CCCN(CCCNc1ccnc2cc(C(F)(F)F)ccc12)Cc1cc(OC)ccc1F [SJ000520480] | 11.9552
CCCN(CCCNc1c2ccc(Cl)cc2nc2ccc(OC)cc12)Cc1cc(OC(F)(F)F)ccc1OC [SJ000522984] | -36.7058
Clc1ccc2c(NCCCN(Cc3ccccc3)Cc3cccc4c3OCO4)ccnc2c1 [SJ000357598] | 3.49
CC(C)CCc1ccc2c(NCCCNCc3ccco3)ccnc2c1 [SJ000311246] | 13.0054
CCCN(CCCNc1ccnc2cc(Cl)ccc12)CC(C)C [SJ000357568] | 11.4525
CCCN(CCCNc1ccnc2cc(C(F)(F)F)ccc12)Cc1ccccc1O [SJ000361257] | 26.5044
CCCN(CCCNc1ccnc2cc(C(F)(F)F)ccc12)Cc1cccc2c1OCO2 [SJ000520472] | 14.6158
N#Cc1ccc(Cc2ccc3c(NCCCNCc4ccco4)ccnc3c2)cc1 [SJ000311302] | 20.4271
COc1ccc2nc3cc(Cl)ccc3c(NCCCNCc3ccccc3N)c2c1 [SJ000523031] | -57.1504
CCCN(CCCNc1ccnc2cc(C(F)(F)F)ccc12)Cc1ccccc1C(F)(F)F [SJ000361259] | 4.988
CCCN(CCCNc1ccnc2cc(C(F)(F)F)ccc12)Cc1csc2ccccc12 [SJ000520483] | 19.4469
CCCCNCCCNc1ccnc2cc(C(F)(F)F)ccc12 [SJ000521055] | 18.5367

Other lines, results leading:

percent inhibition (TR-FRET) | SMILES
9.598 | Clc1ccc2c(NCCCN(Cc3ccccc3)Cc3ccsc3)ccnc2c1 [SJ000312675]
-7.0891 | COc1ccc2nc3cc(Cl)ccc3c(NCCCNCc3cccc(C)c3)c2c1 [SJ000522956]
-1.797 | Clc1ccc2c(NCCCN(Cc3ccccc3)Cc3ccc(Br)o3)ccnc2c1 [SJ000312671]
-89.0775 | CCCN(CCCNc1c2ccc(Cl)cc2nc2ccc(OC)cc12)Cc1cncc(Br)c1 [SJ000522975]
-9.311 | Cn1cc(CN(CCCNc2ccnc3cc(Cl)ccc23)Cc2ccccc2)c2ccccc21 [SJ000520439]
24.7681 | Fc1ccc(Cc2ccc3c(NCCCNCc4ccco4)ccnc3c2)c(Cl)c1 [SJ000311322]
15.626 | Clc1ccc2c(NCCCNCC3CCCCC3)ccnc2c1 [SJ000361102]
30.7894 | c1coc(CNCCCNc2ccnc3cc(-c4ccc5c(c4)OCO5)ccc23)c1 [SJ000311290]
33.5128 | Clc1cccc(-c2ccc(CNCCCNc3ccnc4cc(Cl)ccc34)o2)c1 [SJ000523069]
40.005 | CCCN(CCCNc1c2ccc(Cl)cc2nc2ccc(OC)cc12)Cc1c(Cl)ccc(Cl)c1Cl [SJ000523021]
16.421 | O=[N+]([O-])c1ccccc1CN(CCCNc1ccnc2cc(Cl)ccc12)Cc1ccccc1 [SJ000361177]
29.3392 | CCCN(CCCNc1ccnc2cc(Cl)ccc12)Cc1c[nH]c2ccc(F)cc12 [SJ000522992]
